The text below walks through data of patent publication US20130158075A1, “HETEROCYCLIC COMPOUNDS AS DGAT1 INHIBITORS” (PIRAMAL ENTERPRISES LIMITED, priority 2010, published 2013).

Molecules are shown by their SMILES. Counter-ions that a name gives are not always drawn. Where only a bound is given, the exact number is not on record here.

The assay addresses T1, hDGAT1 (Homo sapiens, UniProt O75907).
T1 construct: made in house; host or cells: Sf9 insect cells (baculovirus); microsomal fraction
T1 sequence (O75907 1-488): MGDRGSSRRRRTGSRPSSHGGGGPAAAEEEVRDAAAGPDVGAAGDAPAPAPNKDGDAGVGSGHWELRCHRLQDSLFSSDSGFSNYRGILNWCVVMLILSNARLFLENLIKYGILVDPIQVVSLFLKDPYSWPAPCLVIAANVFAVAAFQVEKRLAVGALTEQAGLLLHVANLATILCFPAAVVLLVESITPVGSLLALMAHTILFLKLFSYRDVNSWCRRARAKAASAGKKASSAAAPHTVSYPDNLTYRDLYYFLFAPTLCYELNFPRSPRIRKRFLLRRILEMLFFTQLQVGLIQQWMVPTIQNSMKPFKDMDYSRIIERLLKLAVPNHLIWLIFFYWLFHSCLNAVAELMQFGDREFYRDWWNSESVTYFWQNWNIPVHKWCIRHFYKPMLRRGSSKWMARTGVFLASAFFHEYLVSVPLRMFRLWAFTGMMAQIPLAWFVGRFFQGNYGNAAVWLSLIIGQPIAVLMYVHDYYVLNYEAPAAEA
Briefly: In-vitro DGAT1 assay with hDGAT1 microsomes from Sf9 cells (14C oleoyl CoA, scintillation counting). The class given is biochemical. Conditions: for inhibition at 1 µM: read-out: Percentage inhibition of hDGAT1; for Percentage inhibition of hDGAT1: at 1 μM. The method in brief:
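Microsomes from Sf9 cells infected with hDGAT1 baculovirus (MOI 5, harvested ~66-72 h) were incubated with [14C]oleoyl-CoA and 1,2-dioleoyl-sn-glycerol at 37 °C for 10 min, in duplicate. After alkaline ethanol stop, triglycerides were heptane-extracted and counted by liquid scintillation; percent inhibition was plotted against compound concentration (nM).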

Take `O=C(Nc1ccccc1)Nc1ccc(-c2cnc(CCNS(=O)(=O)C(F)(F)F)s2)cc1` [Example 527, 1,1,1-Trifluoro-N-(2-(5-(4-(3-phenylureido)phenyl)thiazol-2-yl)ethyl)methane sulfonamide]: the inhibition (in general, the relative decrease from the control value, in per cent) at 1 µM was greater than 50%.
Turning to `O=C(Nc1ccc(-c2cnc(CCNS(=O)(=O)C(F)(F)F)s2)cc1)NC1CCCCC1` [Example 528, N-(2-(5-(4-(3-Cyclohexylureido)phenyl)thiazol-2-yl)ethyl)-1,1,1-trifluoro methanesulfonamide], the “Percentage inhibition of hDGAT1” value is listed as “++ (>50 % Inhibition)”.
In the case of `O=C(Nc1ccc(-c2cnc(CCNS(=O)(=O)C(F)(F)F)s2)cc1)c1ccccc1Cl` [Example 529, 2-Chloro-N-(4-(2-(2-(trifluoromethylsulfonamido)ethyl)thiazol-5-yl)phenyl)benzamide], the inhibition at 1 µM lay in the range of 20 to 50%.
For `O=C(Nc1ccc(-c2cnc(CCNS(=O)(=O)C(F)(F)F)s2)cc1)c1nc(-c2ccccc2)oc1C(F)(F)F` [Example 533, 2-Phenyl-5-(trifluoromethyl)-N-(4-(2-(2-(trifluoromethylsulfonamido)ethyl)thiazol-5-yl)phenyl)oxazole-4-carboxamide], the inhibition at 1 µM is greater than 50%.
On to `N#CN=C(Nc1ccc(-c2cnc(CCNS(=O)(=O)C(F)(F)F)s2)cc1)Nc1ccccc1F` [Example 537, N-(2-(5-(4-(2-Cyano-3-(2-fluorophenyl)guanidino)phenyl)thiazol-2-yl)ethyl)-1,1,1-trifluoromethanesulfonamide], for which the inhibition at 1 µM was greater than 50%.
Consider `O=C(Nc1ccc(-c2cnc(CNS(=O)(=O)C(F)(F)F)s2)cc1)Nc1ccccc1Cl` [Example 543, N-((5-(4-(3-(2-Chlorophenyl)ureido)phenyl)thiazol-2-yl)methyl)-1,1,1-trifluoro methanesulfonamide], for which the “Percentage inhibition of hDGAT1” value is reported as “++ (>50 % Inhibition)”.
Turning to `O=C(Nc1ccc(-c2cnc(CNS(=O)(=O)C(F)(F)F)s2)cc1)Nc1ccccc1F` [Example 544, 1,1,1-Trifluoro-N-((5-(4-(3-(2-fluorophenyl)ureido)phenyl)thiazol-2-yl)methyl)methanesulfonamide], the inhibition at 1 µM was greater than 50%.
As to `O=C(Nc1ccc(-c2cnc(CNS(=O)(=O)C(F)(F)F)s2)cc1)Nc1cc(F)cc(F)c1` [Example 545, N-((5-(4-(3-(3,5-Difluorophenyl)ureido)phenyl)thiazol-2-yl)methyl)-1,1,1-trifluoromethanesulfonamide], the inhibition at 1 µM is greater than 50%.
With `O=C(Nc1ccc(-c2cnc(CNS(=O)(=O)C(F)(F)F)s2)cc1)Nc1cc(F)c(F)cc1F` [Example 546, 1,1,1-Trifluoro-N-((5-(4-(3-(2,4,5-trifluorophenyl)ureido)phenyl)thiazol-2-yl)methyl)methanesulfonamide], the inhibition at 1 µM is greater than 50%.
Still for that read-out and setting: the result for `O=C(Nc1ccc(-c2cnc(CNS(=O)(=O)C(F)(F)F)s2)cc1)Nc1c(F)cc(F)cc1F` [Example 547, 1,1,1-Trifluoro-N-((5-(4-(3-(2,4,6-trifluorophenyl)ureido)phenyl)thiazol-2-yl)methyl)methanesulfonamide] reads greater than 50%.
Take `O=C(Nc1ccc(-c2cnc(CNS(=O)(=O)C(F)(F)F)s2)cc1)NC1CCCCC1` [Example 548, N-((5-(4-(3-Cyclohexylureido)phenyl)thiazol-2-yl)methyl)-1,1,1-trifluoro methanesulfonamide]: the “Percentage inhibition of hDGAT1” value is listed as “++ (>50 % Inhibition)”.
With `O=C(Nc1ccc(-c2cnc(CNS(=O)(=O)C(F)(F)F)s2)cc1)Nc1ccc(C(F)(F)F)cc1` [Example 549, 1,1,1-Trifluoro-N-((5-(4-(3-(4-(trifluoromethyl)phenyl)ureido)phenyl)thiazol-2-yl)methyl)methanesulfonamide], the inhibition at 1 µM was greater than 50%.
For the molecule `O=C(Nc1ccccc1)Nc1ccc(-c2cnc(CNS(=O)(=O)C(F)(F)F)s2)cc1` [Example 550, 1,1,1-Trifluoro-N-((5-(4-(3-phenylureido)phenyl)thiazol-2-yl)methyl)methane sulfonamide], the inhibition at 1 µM was greater than 50%.
As to `O=C(Nc1ccc(-c2cnc(CNS(=O)(=O)C(F)(F)F)s2)cc1)c1ccccc1Cl` [Example 551], the “Percentage inhibition of hDGAT1” value is given as “+ (20-50% Inhibition)”.
Regarding `O=C(Nc1ccc(-c2cnc(CNS(=O)(=O)C(F)(F)F)s2)cc1)c1ccc(C(F)(F)F)cc1` [Example 552, 4-(Trifluoromethyl)-N-(4-(2-((trifluoromethylsulfonamido)methyl)thiazol-5-yl)phenyl)benzamide], the inhibition at 1 µM was greater than 50%.
On the same count and under the same terms, to `O=S(=O)(Nc1ccc(-c2cnc(CNS(=O)(=O)C(F)(F)F)s2)cc1)c1ccccc1` [Example 553, N-(4-(2-((Trifluoromethylsulfonamido)methyl)thiazol-5-yl)phenyl)benzene sulfonamide] belongs 20 to 50%; to `CC(C)(NS(=O)(=O)C(F)(F)F)c1ncc(-c2ccc(NC(=O)Nc3ccccc3Cl)cc2)s1` [Example 562, N-(2-(5-(4-(3-(2-Chlorophenyl)ureido)phenyl)thiazol-2-yl)propan-2-yl)-1,1,1-trifluoromethanesulfonamide], greater than 50%.
In the case of `CC(C)(NS(=O)(=O)C(F)(F)F)c1ncc(-c2ccc(NC(=O)Nc3ccccc3F)cc2)s1` [Example 563, 1,1,1-Trifluoro-N-(2-(5-(4-(3-(2-fluorophenyl)ureido)phenyl)thiazol-2-yl)propan-2-yl)methanesulfonamide], the inhibition at 1 µM is greater than 50%.
Still for that read-out and setting: the result for `CC(C)(NS(=O)(=O)C(F)(F)F)c1ncc(-c2ccc(NC(=O)Nc3cc(F)cc(F)c3)cc2)s1` [Example 564, N-(2-(5-(4-(3-(3,5-Difluorophenyl)ureido)phenyl)thiazol-2-yl)propan-2-yl)-1,1,1-trifluoromethanesulfonamide] reads greater than 50%; that for `CC(C)(NS(=O)(=O)C(F)(F)F)c1ncc(-c2ccc(NC(=O)Nc3cc(F)c(F)cc3F)cc2)s1` [Example 565, 1,1,1-Trifluoro-N-(2-(5-(4-(3-(2,4,5-trifluorophenyl)ureido)phenyl)thiazol-2-yl)propan-2-yl)methanesulfonamide], greater than 50%; that for `CC(C)(NS(=O)(=O)C(F)(F)F)c1ncc(-c2ccc(NC(=O)Nc3c(F)cc(F)cc3F)cc2)s1` [Example 566, 1,1,1-Trifluoro-N-(2-(5-(4-(3-(2,4,6-trifluorophenyl)ureido)phenyl)thiazol-2-yl)propan-2-yl)methanesulfonamide], 20 to 50%.
The same measure, in the same setting: the result for `CC(C)(NS(=O)(=O)C(F)(F)F)c1ncc(-c2ccc(NC(=O)NC3CCCCC3)cc2)s1` [Example 567, N-(2-(5-(4-(3-Cyclohexylureido)phenyl)thiazol-2-yl)propan-2-yl)-1,1,1-trifluoromethanesulfonamide] reads greater than 50%.
On the same count and under the same terms, the result for `CC(C)(NS(=O)(=O)C(F)(F)F)c1ncc(-c2ccc(NS(=O)(=O)c3ccccc3)cc2)s1` [Example 568, N-(4-(2-(2-(Trifluoromethylsulfonamido)propan-2-yl)thiazol-5-yl)phenyl)benzenesulfonamide] reads 20 to 50%; that for `NCCc1ncc(-c2ccc(NC(=O)Nc3cc(F)cc(F)c3)cc2)s1` [Example 574, 1-(4-(2-(2-Aminoethyl)thiazol-5-yl)phenyl)-3-(3,5-difluorophenyl)urea hydrochloride], 20 to 50%.
Regarding `NCCc1ncc(-c2ccc(NC(=O)Nc3cc(F)c(F)cc3F)cc2)s1` [Example 575, 1-(4-(2-(2-Aminoethyl)thiazol-5-yl)phenyl)-3-(2,4,5-trifluorophenyl)urea hydrochloride], the inhibition at 1 µM fell in the range of 20 to 50%.
Turning to `CC(C)(CCc1ncc(-c2ccc(NC(=O)Nc3ccccc3Cl)cc2)s1)C(=O)NS(=O)(=O)C(F)(F)F` [Example 579, 4-(5-(4-(3-(2-Chlorophenyl)ureido)phenyl)thiazol-2-yl)-2,2-dimethyl-N-((trifluoromethyl)sulfonyl)butanamide], the inhibition at 1 µM was greater than 50%.
On the same count and under the same terms, the result for `CC(C)(CCc1ncc(-c2ccc(NC(=O)Nc3ccccc3F)cc2)s1)C(=O)NS(=O)(=O)C(F)(F)F` [Example 580, 4-(5-(4-(3-(2-Fluorophenyl)ureido)phenyl)thiazol-2-yl)-2,2-dimethyl-N-((trifluoromethyl)sulfonyl)butanamide] reads greater than 50%; that for `CC(C)(CCc1ncc(-c2ccc(NC(=O)Nc3cc(F)cc(F)c3)cc2)s1)C(=O)NS(=O)(=O)C(F)(F)F` [Example 581, 4-(5-(4-(3-(3,5-Difluorophenyl)ureido)phenyl)thiazol-2-yl)-2,2-dimethyl-N-((trifluoromethyl)sulfonyl)butanamide], greater than 50%.
Same read-out and setting: the result for `CC(C)(CCc1ncc(-c2ccc(NC(=O)Nc3cc(F)c(F)cc3F)cc2)s1)C(=O)NS(=O)(=O)C(F)(F)F` [Example 582, 2,2-Dimethyl-N-((trifluoromethyl)sulfonyl)-4-(5-(4-(3-(2,4,5-trifluorophenyl)ureido)phenyl)thiazol-2-yl)butanamide] reads greater than 50%; that for `O=C(Nc1ccc(-c2cnc(C3CCC(C(=O)O)CC3)s2)cc1)Nc1cc(F)c(F)cc1F` (stereo not drawn) [Example 584, 4-(5-(4-(3-(2,4,5-Trifluorophenyl)ureido)phenyl)thiazol-2-yl)cyclohexane carboxylic acid], greater than 50%.
